Data: US12077503B2, “Substituted cyclic amides and their use as herbicides” (FMC CORPORATION, priority 2015, dated 2024)

Assays:
Format in all cases: in vivo
[1] = test system: pigweed (Amaranthus retroflexus); experiment: Test A preemergence
[2] = test system: giant foxtail (Setaria faberii); experiment: Test A preemergence
Outline: (§1)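 Seeded soil received test chemicals as a preemergence directed spray, and seedlings at one to two leaves, 2–10 cm tall, received them postemergence, in a non-phytotoxic, surfactant-containing solvent mixture. Pots were held in a greenhouse for approximately 10 d, then rated for injury from 0, no effect, to 100, complete control.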

[3] = test system: ragweed (common ragweed, Ambrosia elatior); experiment: Test A preemergence
Outline: as §1

[4] = test system: ryegrass, Italian (Italian ryegrass, Lolium multiflorum); experiment: Test A preemergence
Outline: as §1

[5] = test system: Kochia (Kochia scoparia); experiment: Test A preemergence
Outline: as §1

[6] = test system: barnyardgrass (Echinochloa crus-galli); experiment: Test A preemergence
Outline: as §1

[7] = test system: pigweed (Amaranthus retroflexus); experiment: Test A postemergence
Outline: as §1

[8] = test system: blackgrass (Alopecurus myosuroides); experiment: Test A postemergence
Outline: as §1

[9] = test system: giant foxtail (Setaria faberii); experiment: Test A postemergence
Outline: as §1

[10] = test system: ragweed (common ragweed, Ambrosia elatior); experiment: Test A postemergence
Outline: as §1

[11] = test system: ryegrass, Italian (Italian ryegrass, Lolium multiflorum); experiment: Test A postemergence
Outline: as §1

[12] = test system: Kochia (Kochia scoparia); experiment: Test A postemergence
Outline: as §1

[13] = test system: wheat (Triticum aestivum); experiment: Test A postemergence
Outline: as §1

[14] = test system: barnyardgrass (Echinochloa crus-galli); experiment: Test A postemergence
Outline: as §1

[15] = test system: Galium (catchweed bedstraw, Galium aparine); experiment: Test A postemergence
Outline: as §1

[16] = test system: corn (Zea mays); experiment: Test A postemergence
Outline: as §1

[17] = test system: pigweed (Amaranthus retroflexus); experiment: Test C preemergence; settings: for Plant response rating (scale of 0 to 100), Pigweed: 31 g ai/ha, 0 is no effect, 100 is complete control; for Plant response rating, Pigweed: scale 0 to 100, 0 no effect, 100 complete control
Outline: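 Preemergence: sow in loam-sand soil and treat. Postemergence: grow in peat-moss/vermiculite medium to 2–18 cm (1–4 leaves) and spray. Compound in non-phytotoxic solvent with surfactant; keep in greenhouse 13–15 d; score visually against controls, 0 (none) to 100 (full control).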

[18] = test system: sedge, umbrella (small-flower umbrella sedge, Cyperus difformis); experiment: Test B flooded paddy test; settings: Flood, 250 g ai/ha; 0 to 100 scale where 0 is no effect and 100 is complete control; 13 to 15 d
Outline: (§2)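 Greenhouse paddy pots with 2-leaf stage plants received compound by direct addition to floodwater 3 cm deep, kept at that level. Scored visually at 13–15 d versus controls (0 no effect; 100 complete control).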

[19] = test system: ducksalad (Heteranthera limosa); experiment: Test B flooded paddy test; settings: Flood, 250 g ai/ha; 0 to 100 scale where 0 is no effect and 100 is complete control; 13 to 15 d
Outline: as §2

[20] = test system: rice (Oryra sativa); experiment: Test B flooded paddy test; settings: Flood, 250 g ai/ha; 0 to 100 scale where 0 is no effect and 100 is complete control; 13 to 15 d
Outline: as §2

[21] = test system: barnyardgrass (Echinochloa crus-galli); experiment: Test B flooded paddy test; settings: Flood, 250 g ai/ha; 0 to 100 scale where 0 is no effect and 100 is complete control; 13 to 15 d
Outline: as §2

[22] = 125 g ai/ha, Preemergence, visual injury after approximately 10 d, 0 to 100 scale where 0 is no effect and 100 is complete control
[23] = Preemergence, 500 g ai/ha, visual injury approx. 10 d
[24] = 125 g ai/ha, postemergence, visual injury rating on 0 to 100 scale (0 no effect, 100 complete control), approx. 10 d
[25] = Postemergence, 500 g ai/ha, 0 to 100 scale where 0 is no effect and 100 is complete control
[26] = 500 g ai/ha, preemergence, 0 to 100 scale, 0 = no effect, 100 = complete control
[27] = 125 g ai/ha, postemergence, visual rating after approx. 10 d, 0 to 100 scale (0 no effect, 100 complete control)

| SMILES | Plant response rating, Pigweed [1, 22] | Plant response rating, Foxtail, Giant [2, 22] | Plant response rating, Ryegrass, Italian [4, 22] | Plant response rating, Kochia [5, 22] | Plant response rating, Barnyardgrass [6, 22] | Plant response rating, Pigweed [7, 25] | Plant response rating, Blackgrass [8, 25] | Plant response rating, Foxtail, Giant [9, 25] | Plant response rating, Ragweed [10, 25] | Plant response rating, Ryegrass, Italian [11, 25] | Plant response rating, Kochia [12, 25] | Plant response rating, Wheat [13, 25] | Plant response rating, Barnyardgrass [14, 25] | Plant response rating, Galium [15, 25] | Plant response rating, Corn [16, 25] | Plant response rating (scale of 0 to 100), Pigweed [17] | Plant response rating, Pigweed ([17]; 62 g ai/ha) | Plant response rating, Pigweed ([17]; 125 g ai/ha) | Plant response rating, Pigweed ([17]; 250 g ai/ha) | Plant response rating, Sedge, Umbrella [18] | other results |
| --- | --- | --- | --- | --- | --- | --- | --- | --- | --- | --- | --- | --- | --- | --- | --- | --- | --- | --- | --- | --- | --- |
| O=C1NCC(c2cc(F)cc(Cl)c2)C1C(=O)Nc1cccc(F)c1F (stereo not drawn) [Compound 492] | 0 | 90 | 50 | 60 | 90 | 60 | 70 | 90 | 70 | 50 | 60 | 60 | 90 | 60 | 80 | 0 | 25 | 75 | 80 | 0 | Pigweed plant response rating (0 to 100 scale, 0 is no effect, 100 is complete control) [1, 23]: 70; Foxtail, Giant plant response rating (0 to 100 scale, 0 is no effect, 100 is complete control) [2, 23]: 90; Plant response rating, Ragweed [3, 22]: 30; Ragweed plant response rating (0 to 100 scale, 0 is no effect, 100 is complete control) [3, 23]: 80; Ryegrass, Italian plant response rating (0 to 100 scale, 0 is no effect, 100 is complete control) [4, 23]: 50; Kochia plant response rating (0 to 100 scale, 0 is no effect, 100 is complete control) [5, 23]: 70; Barnyardgrass plant response rating (0 to 100 scale, 0 is no effect, 100 is complete control) [6, 23]: 90; Pigweed plant response rating [7, 24]: 40; Blackgrass plant response rating [8, 24]: 50; Foxtail, Giant plant response rating [9, 24]: 90; Ragweed plant response rating [10, 24]: 30; Ryegrass, Italian plant response rating [11, 24]: 20; Kochia plant response rating [12, 24]: 40; Wheat plant response rating [13, 24]: 20; Barnyardgrass plant response rating [14, 24]: 90; Galium plant response rating [15, 24]: 50; Corn plant response rating [16, 24]: 70; Plant response rating, Ducksalad [19]: 100; Plant response rating, Rice [20]: 25; Plant response rating, Barnyardgrass [21]: 65 |
| CN1CC(c2ccc(F)c(C(F)(F)F)c2)C(C(=O)Nc2cccc(F)c2F)C1=O (stereo not drawn) [Compound 613] | 70 | 90 | 70 | 60 | 90 | 70 | 60 | 90 | 30 | 60 | 70 | 50 | 90 | 60 | 80 | 70 | 80 | 85 | 90 | 75 | Plant response rating, Pigweed [1, 26]: 70; Plant response rating, Foxtail, Giant [2, 26]: 90; Plant response rating, Ragweed [3, 22]: 60; Plant response rating, Ragweed [3, 26]: 60; Plant response rating, Ryegrass, Italian [4, 26]: 80; Plant response rating, Kochia [5, 26]: 70; Plant response rating, Barnyardgrass [6, 26]: 90; Plant response rating, Pigweed [7, 27]: 50; Plant response rating, Blackgrass [8, 27]: 40; Plant response rating, Foxtail, Giant [9, 27]: 90; Plant response rating, Ragweed [10, 27]: 20; Plant response rating, Ryegrass, Italian [11, 27]: 60; Plant response rating, Kochia [12, 27]: 60; Plant response rating, Wheat [13, 27]: 40; Plant response rating, Barnyardgrass [14, 27]: 70; Plant response rating, Galium [15, 27]: 60; Plant response rating, Corn [16, 27]: 50; Plant response rating, Ducksalad [19]: 98; Plant response rating, Rice [20]: 10; Plant response rating, Barnyardgrass [21]: 80 |
| CN1CC(c2cccc(OC(F)F)c2)C(C(=O)Nc2ccccc2F)C1=O (stereo not drawn) [Compound 618] | 50 | 90 | 50 | 90 | 90 | 30 | 60 | 90 | 20 | 50 | 60 | 70 | 90 | 60 | 80 | 40 | 60 | 60 | 75 | 0 | Plant response rating, Pigweed [1, 26]: 90; Plant response rating, Foxtail, Giant [2, 26]: 100; Plant response rating, Ragweed [3, 26]: 70; Plant response rating, Ryegrass, Italian [4, 26]: 90; Plant response rating, Kochia [5, 26]: 90; Plant response rating, Barnyardgrass [6, 26]: 90; Plant response rating, Pigweed [7, 27]: 0; Plant response rating, Blackgrass [8, 27]: 50; Plant response rating, Foxtail, Giant [9, 27]: 90; Plant response rating, Ragweed [10, 27]: 0; Plant response rating, Ryegrass, Italian [11, 27]: 40; Plant response rating, Kochia [12, 27]: 40; Plant response rating, Wheat [13, 27]: 50; Plant response rating, Barnyardgrass [14, 27]: 90; Plant response rating, Galium [15, 27]: 50; Plant response rating, Corn [16, 27]: 80; Plant response rating, Ducksalad [19]: 100; Plant response rating, Rice [20]: 10; Plant response rating, Barnyardgrass [21]: 85 |
| CN1CC(c2ccc(C(F)(F)F)cc2)C(C(=O)Nc2ccccc2S(C)(=O)=O)C1=O (stereo not drawn) [Compound 624] | 80 | 90 | 40 | 40 | 90 | 60 | 50 | 90 | 0 | 30 | 60 | 70 | 90 | 50 | 40 | 80 | 85 | 85 | 90 | 0 | Plant response rating, Pigweed [1, 26]: 80; Plant response rating, Foxtail, Giant [2, 26]: 90; Plant response rating, Ragweed [3, 22]: 60; Plant response rating, Ragweed [3, 26]: 70; Plant response rating, Ryegrass, Italian [4, 26]: 40; Plant response rating, Kochia [5, 26]: 60; Plant response rating, Barnyardgrass [6, 26]: 90; Plant response rating, Pigweed [7, 27]: 20; Plant response rating, Blackgrass [8, 27]: 40; Plant response rating, Foxtail, Giant [9, 27]: 80; Plant response rating, Ragweed [10, 27]: 0; Plant response rating, Ryegrass, Italian [11, 27]: 30; Plant response rating, Kochia [12, 27]: 0; Plant response rating, Wheat [13, 27]: 20; Plant response rating, Barnyardgrass [14, 27]: 80; Plant response rating, Galium [15, 27]: 30; Plant response rating, Corn [16, 27]: 0; Plant response rating, Ducksalad [19]: 100; Plant response rating, Rice [20]: 20; Plant response rating, Barnyardgrass [21]: 70 |
